The source of these data is patent publication US10183936B2, “Hepatitis B core protein allosteric modulators” (priority 2014, dated 2019).

Data set [1] has as its system HBV viral production in AD38 cells. Nature of the data set: Viral load production in AD38 cells by quantitative PCR of the HBV core sequence in supernatant. The following applies: Hepatitis B virus, 144 h; 10 μM compound, 6 days at 37° C., viral load in supernatant compared against DMSO control wells; read-out: AD38 Viral Load (CpAM/DMSO %) at 10 μM. It counts as cell-based. Put shortly:
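Read-out is TaqMan qPCR of the HBV core region in supernatant, quantitated against standards and referenced to DMSO controls (≥3 per plate). Cells: AD38 at 50,000/well, exposed to compound (added as 10× stock in 10% DMSO) for 6 days at 37° C.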

Another data set has as its system AD38 cells. Nature of the data set: Viability of AD38 cells (Promega CellTiter-Glo) at the end of compound treatment. It counts as cell-based. The settings on record: 10 μM compound, 6 days, luminescence normalized against DMSO control wells (controls being 100%). The method in brief:
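Luminescent CellTiter-Glo read-out, taken after supernatant was swapped for tetracycline-free 2% FBS medium with 1% DMSO, gave percent viability relative to DMSO controls set at 100%. Cells were plated at 50,000/well and exposed to compound, added as a 10× stock in 10% DMSO, for 6 days at 37° C.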

Molecules are shown by their SMILES.

Turning to `O=C(NCc1cnco1)c1ccc2c(c1)NC(=O)c1ccc(F)cc1S2` [Compound 1349], in data set [1], the activity at 10 µM is 12%. In the data set on AD38 cells, the “AD38 Viability Normalized Result (CPAM/DMSO %) at 10 μM” value is given as 102%.

In the case of `O=C(Nc1ncco1)c1ccc2c(c1)NC(=O)c1cc(F)ccc1S2` [Compound 1353], the activity at 10 µM in data set [1] is 50%. In the data set on AD38 cells, the “AD38 Viability Normalized Result (CPAM/DMSO %) at 10 μM” value was found to be 97%.

Take `O=C(Nc1nc2ccccc2o1)c1ccc2c(c1)NC(=O)c1cc(F)ccc1S2` [Compound 1354]: in data set [1], the activity at 10 µM turned out to be 98%. In the data set with AD38 cells, the “AD38 Viability Normalized Result (CPAM/DMSO %) at 10 μM” value is given as 70%.

For `O=C(NCc1cncs1)c1ccc2c(c1)NC(=O)c1ccc(F)cc1S2` [Compound 1356], in data set [1], the activity at 10 µM came out at 3%. In addition, the “AD38 Viability Normalized Result (CPAM/DMSO %) at 10 μM” value with AD38 cells stood at 101%.

On to `O=C1Nc2cc(CNCCc3ccccc3)ccc2Sc2ccccc21` [Compound 1357, 8-((phenethylamino)methyl) dibenzo [b,f] [1,4] thiazepin-11(10H)-one], for which, in data set [1], the activity at 10 µM stood at 39%. The “AD38 Viability Normalized Result (CPAM/DMSO %) at 10 μM” value in the data set on AD38 cells turned out to be 115%.

With `O=C(Nc1cccc(-c2ccccc2)c1)c1ccc2c(c1)NC(=O)c1ccc(F)cc1S2` [Compound 1358], the activity at 10 µM in data set [1] came to 15%. The “AD38 Viability Normalized Result (CPAM/DMSO %) at 10 μM” value in the data set with AD38 cells was 72%.

With `O=C(NC(CO)Cc1cncnc1)c1ccc2c(c1)NC(=O)c1cc(F)ccc1S2` (stereo not drawn) [Compound 1361, 2-fluoro-N-(1-hydroxy-3-(pyrimidin-5-yl)propan-2-yl)-11-oxo-10, 11-dihydrodibenzo [b,f] [1,4] thiazepine-8-carboxamide], the activity at 10 µM in data set [1] stood at 79%. Moreover, the “AD38 Viability Normalized Result (CPAM/DMSO %) at 10 μM” value in the data set with AD38 cells came out at 113%.

`O=C(NCCc1cncnc1)c1ccc2c(c1)NC(=O)c1ccc(F)cc1S2` [Compound 1362]: the activity at 10 µM in data set [1] came to 19%. Moreover, in the data set with AD38 cells, the “AD38 Viability Normalized Result (CPAM/DMSO %) at 10 μM” value is given as 98%.

In the case of `O=C(NCc1cccnc1)c1ccc2c(c1)NC(=O)c1cc(F)ccc1S2` [Compound 1364], the activity at 10 µM in data set [1] turned out to be 1%. Besides, the “AD38 Viability Normalized Result (CPAM/DMSO %) at 10 μM” value in the data set with AD38 cells was determined as 102%.

`O=C(NCc1cccnc1)c1ccc2c(c1)NC(=O)c1ccc(F)cc1S2` [Compound 1365]: in data set [1], the activity at 10 µM was 2%. Also, the “AD38 Viability Normalized Result (CPAM/DMSO %) at 10 μM” value in the data set with AD38 cells worked out at 105%.

With `O=C(Nc1ccncc1)c1ccc2c(c1)NC(=O)c1ccc(F)cc1S2` [Compound 1366], the activity at 10 µM in data set [1] amounted to 12%. For the same compound, in the data set with AD38 cells, the “AD38 Viability Normalized Result (CPAM/DMSO %) at 10 μM” value came out at 93%.

For the compound `CC(=O)N(CCc1ccccc1)Cc1ccc2c(c1)NC(=O)c1ccccc1S2` [Compound 1367, N-((11-oxo-10, 11-dihydrodibenzo [b,f] [1,4]thiazepin-8-yl)methyl)-N-phenethyl acetamide], the activity at 10 µM in data set [1] is 33%. For the same compound, in the data set on AD38 cells, the “AD38 Viability Normalized Result (CPAM/DMSO %) at 10 μM” value came to 88%.

Take `O=C(NCCc1ccc(-c2ccccc2)cc1)c1ccc2c(c1)NC(=O)c1cc(F)ccc1S2` [Compound 1370]: in data set [1], the activity at 10 µM was 5%. In addition, the “AD38 Viability Normalized Result (CPAM/DMSO %) at 10 μM” value in the data set on AD38 cells was found to be 94%.

For the compound `O=C(NCCc1ccc(-c2ccccc2)cc1)c1ccc2c(c1)NC(=O)c1ccc(F)cc1S2` [Compound 1371], the activity at 10 µM in data set [1] was found to be 6%. For the same compound, in the data set with AD38 cells, the “AD38 Viability Normalized Result (CPAM/DMSO %) at 10 μM” value is 94%.

In the case of `O=C(NCc1cncnc1)c1ccc2c(c1)NC(=O)c1ccccc1[S+]2[O-]` (stereo not drawn) [Compound 1373], in data set [1], the activity at 10 µM came out at 10%. In addition, the “AD38 Viability Normalized Result (CPAM/DMSO %) at 10 μM” value in the data set on AD38 cells is 100%.

Take `O=C(NCCc1ccccn1)c1ccc2c(c1)NC(=O)c1ccccc1[S+]2[O-]` (stereo not drawn) [Compound 1374]: the activity at 10 µM in data set [1] was found to be 1%. Further, in the data set with AD38 cells, the “AD38 Viability Normalized Result (CPAM/DMSO %) at 10 μM” value was found to be 98%.

`O=C(Nc1cccc(-c2ccccc2)c1)c1ccc2c(c1)NC(=O)c1ccccc1[S+]2[O-]` (stereo not drawn) [Compound 1375]: the activity at 10 µM in data set [1] came out at 11%. The “AD38 Viability Normalized Result (CPAM/DMSO %) at 10 μM” value in the data set on AD38 cells was 89%.

For the compound `O=C(NCCc1cccnc1)c1ccc2c(c1)NC(=O)c1cc(F)ccc1S2` [Compound 1376], the activity at 10 µM in data set [1] is 3%. Also, the “AD38 Viability Normalized Result (CPAM/DMSO %) at 10 μM” value in the data set on AD38 cells is 63%.
